Measured values published in patent US20250296937A1, “CYCLIC BISBENZYL TETRAHYDROISOQUINOLINE COMPOUND, AND PREPARATION METHOD THEREFOR AND USE THEREOF” (Shanghai Institute of Materia Medica, Chinesse Academy of …, priority 2021, published 2025).
“Also recorded” adds a separate entry of the source.

Columns and labels:
HCoV OC43 virus = assay: Inhibition against HCoV OC43 virus replication; assay type: cell-based, human coronavirus HCoV OC43; conditions: for EC50: Betacoronavirus 1, OC43
Raw 264.7 cells [1] = assay: Cell viability in TNF-α induced inflammation model of Raw 264.7 cells (CCK-8); assay type: cell-based; conditions: 10 ng/ml TNF-α, 1 μM compound, 16 hours
Procedure: In this embodiment, the effect of compounds on TNF-α-induced inflammation levels in Raw 264.7 cells was analyzed by cell viability combined with inflammatory factor expression levels; cell viability was analyzed by CCK-8 assay; and mRNA expression levels of inflammation-associated indicators were detected by real-time quantitative PCR (Q-PCR) method. Raw 264.7 cells were purchased from ATCC, CCK-8 kit was purchased from Meilunbio, item number MA0218-3, TNF-α was purchased from Merck, item no. GF314.
(§1) Experimental methods: first, 8000 cells/well Raw 264.7 cells were placed in 96-well plates and incubated overnight. On the second day, 0.1% DMSO was added to the control cells, 10 ng/ml TNF-α as well as 0.1% DMSO was added to the model group, 10 ng/ml TNF-α as well as 1 μM of the compounds (oxyacanthine hydrochloride (oxy), 1, 2, tetrandrine (tet), 3, 4, 6, 58) was added to the treatment group, and the 96-well plates were sterilized and incubated in a constant temperature incubator for 16 hours. Finally, the viability of the cells was detected using the CCK-8 kit.

ALM12 hepatocytes = assay: Anti H2O2-induced necrotic injury assay in ALM12 hepatocytes (microscopy, CCK-8); assay type: cell-based; conditions: 2 mM H2O2, 1 μM compound, 3 hours, microscope and CCK-8
Procedure: In this example, the effect of the compounds of the present invention on the level of necrotic injury induced by H2O2 in ALM12 hepatocytes was analyzed by microscopic morphological observations, cell viability in combination with cell death-associated molecules. Cell viability was analyzed by CCK-8 assay. ALM12 cells were cultured in 1640 medium (gibco, c11995500BT)+10% FBS (gibco, 10099141C) in a constant temperature incubator at 37° C., 5% CO2; the CCK-8 kit was purchased from Meilunbio, item no. MA0218-3; H2O2 was purchased from Sinopharm Chemical Reagent Co. item no. 10011208.
Experimental methods: first, 8000 cells/well ALM12 cells were placed in 96-well plates and incubated overnight. On the second day, 0.1% DMSO was added to the control cells, 2 mM H2O2 as well as 0.1% DMSO was added to the model group, 2 mM H2O2 as well as 1 μM of the compounds (oxy, 1, 2, tet, 3, 4, 6, 58) was added to the treatment group, and the 96-well plates were sterilized and incubated in a constant temperature incubator for 3 hours. Finally, cell injury and growth were observed using a microscope; the viability of the cells was detected by CCK-8 kit.

[2] = Cytotoxicity test on Vero E6 cells (CCK8); assay type: cell-based; conditions: African green monkey; Vero E6 cells, CCK8 kit
Procedure: In this embodiment, the half toxicity concentration of each embodiment on Vero E6 cells was determined by CCK8 kit analysis (CC50).

Raw 264.7 cells [3] = assay: Cell viability in LPS-induced inflammation model of Raw 264.7 cells (CCK-8); assay type: cell-based; conditions: 1 μg/ml LPS, 1 μM compound, 16 hours
Procedure: In this example, the effect of the compounds of the present invention on the inflammation level of the LPS-induced inflammation model of Raw 264.7 cells was analyzed by cell viability in combination with inflammatory factors; cell viability was analyzed by CCK-8 assay; and mRNA expression levels of inflammation-related indicators were detected by a real-time quantitative PCR (Q-PCR) method. Raw 264.7 cells were purchased from ATCC; CCK-8 kit was purchased from Meilunbio, item no. MA0218-3; LPS was purchased from Sigma, item no. L2630.
as §1, with “1 μg/ml LPS” for “10 ng/ml TNF-α”

[4] = tested on: carbon tetrachloride-induced acute liver fibrosis; assay: Carbon tetrachloride-induced acute liver fibrosis in mice; assay type: in vivo, C57BL/6 mice; conditions: for liver fibrosis indicators (Collagen1, α-SMA) by WB assay: 30 mg/kg orally once a day for 6 days, CCl4 0.6 ml/kg i.p. D1, D3, D5; for effect on CCl4-induced acute liver fibrosis in mice: oral administration, 30 mg/kg
Procedure: In this example, the effect of the compounds of the present invention on the carbon tetrachloride-induced acute liver fibrosis model was analyzed by tissue observation, fibrosis indicators, HE and Sirius red staining; the injury of mice was determined by body weight testing and tissue bright-field photographing; the protein expression levels of fibrosis-related indicators were detected by WesternBlot assay; and the fibrosis progression was analyzed by HE and Sirius red staining. C57BL/6 mice were purchased from SLAC; CCl4 was purchased from Sinopharm Chemical Reagent Co, Ltd, item no. 10006464; olive oil was purchased from Sinopharm, item no. 69018028; primary antibody: Collagen was purchased from ARG21965, item no. arigobio; α-smooth muscle actin was purchased from CST, item no. mAb #19245; VIMENTN was purchased from CST, item no. mAb #5741; GAPDH was purchased from Yeasen, item no. mAb #30201ES20.
Solution preparation: CCl4 was diluted with olive oil (1:9, vol:vol) and the compounds were configured with 85% saline+5% DMSO+5% HS-15+5% PEG400 as solvents toa concentration of 3 mg/ml.
Construction of fibrosis model mice: […] C57 mice were randomly divided into […] after 1 week of adaptive feeding: blank group, model group, and 2 treatment groups; with 6 experimental animals in the blank group and 8 experimental animals in each of the remaining 3 groups. Except for the blank group, the remaining three groups were injected intraperitoneally with CCl4 (0.6 ml/kg) in D1, D3, and D5, respectively, and the blank group was injected intraperitoneally with olive oil at the same time. At the same time of modeling, mice in the treatment group were continuously administered by gavage for 6 days, once a day, 2 h after the injection of CC14, and the treatment group was administered orally 30 mg/kg of Compound 2 or Compound 4; mice in the blank group and the model group were given an equal amount of saline by intraperitoneal injection, and the mice were euthanized 24 h after the last administration of CCl4 for test. A portion of the liver tissue was cut to appropriate size and placed in 4% PFA, −80° C. refrigerator for subsequent detection of pathological changes in tissue sample slices, and WB assay, respectively.
Detection methods: 1. After autopsy, liver in situ photos were taken; 2. Liver tissue was retained and lysed using RIPA to extract proteins for WB detection; 3. HE staining as well as Sirius red detection were performed when liver tissue sections were fixed.

[5] = target: novel coronavirus envelope protein (2-E) ion channel (Severe acute respiratory syndrome coronavirus 2, UniProt P0DTC4); assay: Novel coronavirus envelope protein (2-E) ion channel activity test, planar lipid bilayer (BLM); assay type: biochemical, SARS-CoV-2; conditions: room temperature, 1, 10, 50, 100 μM, read-out: Inhibition against 2-E ion channels IC50
novel coronavirus envelope protein (2-E) ion channel, sequence (P0DTC4 whole entry, looked up): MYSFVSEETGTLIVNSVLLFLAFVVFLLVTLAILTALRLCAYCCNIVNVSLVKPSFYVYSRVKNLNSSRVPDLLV

SMILES | inhibition against human coronavirus HCoV OC43 (HCoV OC43 virus) | EC50 (HCoV OC43 virus) [µM] | cell viability in TNF-α-induced inflammation model (Raw 264.7 cells [1]) | alleviation of H2O2-induced ALM12 hepatocyte injury (ALM12 hepatocytes) | IC50 [2] [µM] | cell viability in LPS-induced inflammation model (Raw 264.7 cells [3]) | liver fibrosis indicators (Collagen1, α-SMA) by WB assay [4] | effect on CCl4-induced acute liver fibrosis in mice [4] | IC50 [5] [µM]
COc1cc2c3cc1Oc1c(OC)c(OC)cc4c1[C@H](Cc1ccc(cc1)Oc1cc(ccc1C(N)=O)C[C@H]3N(C)CC2)N(C)CC4 [Compound 4] | strong inhibition | 5 | did not affect cell viability | significantly alleviated | > 50 | did not affect cell viability | down-regulated | alleviated; also recorded: mitigative effect | < 1
CCCCNC(=O)Oc1ccc2cc1Oc1ccc(cc1)C[C@H]1c3c(cc(OC)c(OC)c3Oc3cc4c(cc3OC)CCN(C)[C@@H]4C2)CCN1C [Compound 2] | strong inhibition | 1.2 | did not affect cell viability | significantly alleviated | 30 to 50 | did not affect cell viability | down-regulated | alleviated; also recorded: mitigative effect | < 10
